# According to patent EP0125420B1, “Water soluble dispersions of chlorthalidone and process for preparing them” (Boehringer Ingelheim Pharmaceuticals Inc., priority 1983, dated 1984):
# Legend:
# [1] = stability of the solution to ether formation; format: physicochemical; conditions: chlorthalidone added to solution of polymeric carrier in C1-C4 alkanol
# Text: The polymeric carrier polyvinylpyrrolidone (PVP), used in the process of the invention must be pharmaceutically acceptable and be substantially soluble both in water and in the particular Cl-C4 alkanol selected for use in the process. Moreover, the polymeric carrier must be capable of forming a solid state dispersion of chlorthalidone after removal of the alkanol, and be capable of suppressing ether formation arising from reaction of the chlorthalidone with the Cl-C4 alkanol, as discussed above. The ability of a polymeric carrier to suppress ether formation can be determined routinely by dissolving chlorthalidone in a Cl-C4 alkanol, such as methanol, in a glass container in the presence and absence of the polymeric carrier and analyzing aliquots of the solution (taken at varying times up to 24 hours) for chlorthalidone content by HPLC techniques. An acceptable loss of chlorthalidone is up to about 2% after 24 hours at 40°C. The general use of polyvinylpyrrolidone (PVP), to prepare solid state dispersions of pharmaceutical active ingredients is described by the Chiou reference, supra. […] It is believed that PVP suppresses the formation of ethers primarily by complexing trace amounts of heavy metal ions thus making them unavailable for catalysis. […]
# [2] = water; cited from earlier work
# physchem = format: physicochemical; conditions: organic solvent or mixture
# Text: The amount of the Cl-C4 alkanol employed in the process of the invention should be sufficient to solubilize both the polymeric carrier and chlorthalidone. It will be apparent to those skilled in the art that best results will be achieved on a large scale using as high a concentration of chlorthalidone as is possible. Thus, optimally the process should be carried out using concentrations of chlorthalidone at the upper limits of solubility.
structure (smiles),measurement,setting,value
NS(=O)(=O)c1cc(C2(O)NC(=O)c3ccccc32)ccc1Cl (stereo not drawn) [Chlorthalidone],stable to ether formation,[1]; continued heating,at least one hour
same,stable to ether formation,[1]; room temperature,at least four days
same,aqueous solubility,[2],~0.12 mg/mL
same,solubility thermodynamic,physchem; ethanol,15.5 mg/mL
same,solubility thermodynamic,physchem; isopropanol,3.2 mg/mL
same,solubility thermodynamic,physchem; methanol,76.1 mg/mL
